Assays:
Rattus norvegicus [1] = test: Suppression of conditioned avoidance behavior in rats when administered perorally 60 min before measurement; assay type: functional; settings: po
D(2) dopamine receptor = D(2) dopamine receptor (Rattus norvegicus, UniProt P61169); test: Ability to inhibit the [3H]spiperone binding to striatum Dopamine receptor D2 was determined in rat; assay type: tissue-based
Mus musculus [2] = test: Antagonism of apomorphine-induced climbing in mice when administered perorally 60 min prior to apomorphine (1 mg/kg); assay type: functional; settings: po
Mus musculus [3] = test: Antagonism of apomorphine-induced climbing in mice when administered intraperitoneally 30 min prior to apomorphine (1 mg/kg); settings: ip
Rattus norvegicus [4] = test: Induction of catalepsy in rats when administered intraperitoneally 4 hr prior to measurement to groups of 9 animals. value is based on at least three dose levels(40% of animals showed catalepsy); assay type: functional; settings: ip
Rattus norvegicus [5] = test: Suppression of conditioned avoidance behavior in rats when administered intraperitoneally 30 min before measurement; settings: ip
[6] = target: T1, Adrenergic receptor alpha-1 (Rattus norvegicus, UniProt P15823+P23944+P43140); test: Ability to inhibit [3H]WB-4101 binding to alpha-1 adrenergic receptor was determined in rat
T1 sequence (P15823 whole entry): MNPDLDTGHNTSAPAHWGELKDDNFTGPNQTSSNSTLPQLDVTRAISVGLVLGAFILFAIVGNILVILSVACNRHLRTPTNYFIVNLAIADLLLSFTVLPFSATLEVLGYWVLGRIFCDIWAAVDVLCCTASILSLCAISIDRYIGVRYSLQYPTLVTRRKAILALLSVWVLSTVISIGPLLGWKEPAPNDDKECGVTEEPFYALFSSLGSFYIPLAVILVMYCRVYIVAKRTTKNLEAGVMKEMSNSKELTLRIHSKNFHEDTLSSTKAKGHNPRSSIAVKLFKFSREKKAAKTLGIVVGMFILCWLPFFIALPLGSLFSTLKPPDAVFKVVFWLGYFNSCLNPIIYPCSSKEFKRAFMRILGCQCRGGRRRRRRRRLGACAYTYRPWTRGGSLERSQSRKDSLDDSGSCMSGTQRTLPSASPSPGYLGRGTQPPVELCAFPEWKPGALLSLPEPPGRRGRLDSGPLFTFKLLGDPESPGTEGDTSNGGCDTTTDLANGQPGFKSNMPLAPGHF
T1 sequence (P23944 whole entry): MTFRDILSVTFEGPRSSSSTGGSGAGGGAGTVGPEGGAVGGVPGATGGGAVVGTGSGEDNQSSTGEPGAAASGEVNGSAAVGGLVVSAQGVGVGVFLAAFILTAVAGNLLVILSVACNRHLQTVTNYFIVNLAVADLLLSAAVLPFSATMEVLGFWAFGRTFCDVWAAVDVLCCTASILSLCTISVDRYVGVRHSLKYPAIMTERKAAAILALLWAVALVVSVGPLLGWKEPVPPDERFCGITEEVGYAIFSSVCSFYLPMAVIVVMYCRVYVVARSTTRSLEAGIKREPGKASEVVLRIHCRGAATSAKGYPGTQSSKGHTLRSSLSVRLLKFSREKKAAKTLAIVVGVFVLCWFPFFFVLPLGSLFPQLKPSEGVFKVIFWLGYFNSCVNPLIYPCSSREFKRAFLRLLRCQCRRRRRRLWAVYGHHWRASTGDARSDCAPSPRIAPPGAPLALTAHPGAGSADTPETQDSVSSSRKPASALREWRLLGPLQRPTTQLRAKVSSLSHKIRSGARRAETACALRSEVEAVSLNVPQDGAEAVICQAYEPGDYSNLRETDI
T1 sequence (P43140 whole entry): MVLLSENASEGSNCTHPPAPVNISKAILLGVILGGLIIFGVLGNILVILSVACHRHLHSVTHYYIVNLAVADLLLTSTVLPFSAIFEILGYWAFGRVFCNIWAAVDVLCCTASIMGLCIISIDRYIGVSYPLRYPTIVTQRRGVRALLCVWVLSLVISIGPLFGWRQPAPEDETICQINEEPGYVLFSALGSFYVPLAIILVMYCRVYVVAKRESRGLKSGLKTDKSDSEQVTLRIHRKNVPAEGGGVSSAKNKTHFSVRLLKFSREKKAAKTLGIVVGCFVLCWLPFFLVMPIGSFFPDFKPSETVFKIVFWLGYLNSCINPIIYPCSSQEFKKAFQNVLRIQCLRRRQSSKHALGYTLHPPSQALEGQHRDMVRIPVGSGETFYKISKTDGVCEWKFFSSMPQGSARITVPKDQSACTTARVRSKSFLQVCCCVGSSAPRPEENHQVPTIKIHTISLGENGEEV

[7] = target: Serotonin 2 (5-HT2) receptor (Rattus norvegicus, UniProt P30994+P08909+P14842); test: Ability to inhibit [3H]spiperone binding to 5-hydroxytryptamine 2 receptor determined in rat

Sequence of D(2) dopamine receptor (P61169 whole entry): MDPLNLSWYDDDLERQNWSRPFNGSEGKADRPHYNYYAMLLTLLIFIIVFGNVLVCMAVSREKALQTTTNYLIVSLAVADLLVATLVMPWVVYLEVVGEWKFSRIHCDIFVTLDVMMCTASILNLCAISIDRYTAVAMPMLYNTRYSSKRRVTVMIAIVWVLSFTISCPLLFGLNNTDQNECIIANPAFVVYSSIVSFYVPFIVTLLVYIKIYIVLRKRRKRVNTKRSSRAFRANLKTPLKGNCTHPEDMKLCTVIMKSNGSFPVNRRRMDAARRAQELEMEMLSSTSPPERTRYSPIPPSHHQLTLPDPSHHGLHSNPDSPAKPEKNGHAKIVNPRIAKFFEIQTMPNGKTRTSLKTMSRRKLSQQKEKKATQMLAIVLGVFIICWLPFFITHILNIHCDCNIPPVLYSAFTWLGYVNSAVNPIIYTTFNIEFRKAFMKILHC

## CCN1CCCC1c1ccc(-c2cc(S(=O)(=O)CC)ccc2OC)[nH]1 (configuration not stated)
Rattus norvegicus [1]
  ED50: 35 mg/kg
D(2) dopamine receptor
  Ki: 29 nM
Mus musculus [2]
  ED50: 11.4 mg/kg
Mus musculus [3]
  ED50: 4.7 mg/kg

## O=C(CCCN1CCC(O)(c2ccc(Cl)cc2)CC1)c1ccc(F)cc1 [HALOPERIDOL]
Rattus norvegicus [1]
  ED50: 0.8 mg/kg
Mus musculus [3]
  ED50: 0.08 mg/kg
Rattus norvegicus [4]
  ED50: 2 mg/kg
Rattus norvegicus [5]
  ED50: 0.45 mg/kg

## OC1(c2ccc(Cl)cc2)CCN(Cc2ccc(-c3ccc(F)cc3)[nH]2)CC1
Rattus norvegicus [1]
  ED50: > 50 mg/kg
[6]
  Ki: 1600 nM
[7]
  Ki: 9300 nM
D(2) dopamine receptor
  Ki: 1100 nM
Mus musculus [2]
  ED50: 51 mg/kg
Mus musculus [3]
  ED50: 25 mg/kg
Rattus norvegicus [5]
  ED50: > 20 mg/kg

## CCS(=O)(=O)c1ccc(OC)c(-c2ccc(CN3CCC(O)(c4ccc(Cl)cc4)CC3)[nH]2)c1
D(2) dopamine receptor
  Ki: 150 nM
Mus musculus [2]
  ED50: > 100 mg/kg
Mus musculus [3]
  ED50: > 20 mg/kg

## COc1ccccc1N1CCN(CCCC(=O)c2ccc(F)cc2)CC1 [FLUANISONE]
Rattus norvegicus [1]
  ED50: > 50 mg/kg
[6]
  Ki: 0.87 nM
[7]
  Ki: 52 nM
D(2) dopamine receptor
  Ki: 2.9 nM
Mus musculus [2]
  ED50: 25 mg/kg
Mus musculus [3]
  ED50: 0.4 mg/kg
Rattus norvegicus [4]
  ED50: ≥ 22 mg/kg
Rattus norvegicus [5]
  ED50: 2.2 mg/kg

## O=C(NCCN1CCC(O)(c2ccc(Cl)cc2)CC1)c1ccc(F)cc1
Rattus norvegicus [1]
  ED50: > 50 mg/kg
[6]
  Ki: 250 nM
D(2) dopamine receptor
  Ki: 480 nM
Mus musculus [2]
  ED50: 20 mg/kg
Mus musculus [3]
  ED50: 9 mg/kg

## CCS(=O)(=O)c1ccc(OC)c(-c2ccc(CN3CCN(c4ccccc4OC)CC3)[nH]2)c1
Rattus norvegicus [1]
  ED50: > 50 mg/kg
D(2) dopamine receptor
  Ki: 7.3 nM
Mus musculus [2]
  ED50: 35 mg/kg
Mus musculus [3]
  ED50: > 20 mg/kg
Rattus norvegicus [5]
  ED50: > 20 mg/kg

## COc1ccccc1N1CCN(CCNC(=O)c2ccc(F)cc2)CC1
Rattus norvegicus [1]
  ED50: 30 mg/kg
[6]
  Ki: 9 nM
[7]
  Ki: 700 nM
Mus musculus [2]
  ED50: 15 mg/kg
Mus musculus [3]
  ED50: 0.4 mg/kg
Rattus norvegicus [4]
  ED50: > 7.4 mg/kg
Rattus norvegicus [5]
  ED50: 0.74 mg/kg

## CCN1CCC[C@H]1CNC(=O)c1cc(S(N)(=O)=O)ccc1OC [LEVOSULPIRIDE]
Rattus norvegicus [1]
  ED50: > 220 mg/kg
[6]
  Ki: 15000 nM
Mus musculus [2]
  ED50: 195 mg/kg
Mus musculus [3]
  ED50: > 21 mg/kg
Rattus norvegicus [5]
  ED50: > 100 mg/kg

## COc1ccccc1N1CCN(Cc2ccc(-c3ccc(F)cc3)[nH]2)CC1
Rattus norvegicus [1]
  ED50: 8.5 mg/kg
[6]
  Ki: 57 nM
[7]
  Ki: 310 nM
D(2) dopamine receptor
  Ki: 0.91 nM
Mus musculus [2]
  ED50: 0.9 mg/kg
Mus musculus [3]
  ED50: 0.2 mg/kg
Rattus norvegicus [4]
  ED50: > 24 mg/kg
Rattus norvegicus [5]
  ED50: 2.3 mg/kg

## CCN1CCC[C@H]1CNC(=O)c1cc(S(=O)(=O)CC)ccc1OC
Rattus norvegicus [1]
  ED50: 70 mg/kg
[6]
  Ki: 1100 nM
[7]
  Ki: 54000 nM
D(2) dopamine receptor
  Ki: 9.3 nM
Mus musculus [2]
  ED50: 36 mg/kg
Mus musculus [3]
  ED50: > 10 mg/kg

From ChEMBL document CHEMBL1123646, “2-Phenylpyrroles as conformationally restricted benzamide analogues. A new class of potential antipsychotics. 1” (J Med Chem, 1987)
